Where two headings read alike, the source gives them in different places.
Assays:
Phytophthora infestans = test: whole plant or invertebrate; assay type: in vivo; conditions: for pest or weed control at 50 ppm: read-out: Test 1 preventive value, Measured, applied alone, 50 ppm; for pest or weed control at 20 ppm: read-out: Test 1 Measured, component (b) alone 20 ppm; for pest or weed control at 100 ppm: read-out: Test 1 Measured, component (b) alone 100 ppm; for pest or weed control at 500 ppm: read-out: Test 1 Measured, component (b) alone 500 ppm
[1] = test system: Pseudoperonospora cubensis; test: Test 2: control effect against cucumber downy mildew; assay type: in vivo; conditions: for pest or weed control at 20 ppm: component (b) alone 20 ppm; for pest or weed control at 100 ppm: component (b) alone 100 ppm; for pest or weed control at 500 ppm: component (b) alone 500 ppm
[2] = Phytophthora infestans, in Solanum lycopersicum, read-out: Test 1 preventive value, Measured, applied alone, 2 ppm
[3] = Phytophthora infestans, in Solanum lycopersicum, read-out: Test 1 preventive value, Measured, applied alone, 10 ppm
[4] = Phytophthora infestans, in Solanum lycopersicum
[5] = Pseudoperonospora cubensis, applied alone, 2 ppm, read-out: Test 2 preventive value, Measured
[6] = Pseudoperonospora cubensis, applied alone, 10 ppm, read-out: Test 2 preventive value, Measured
[7] = Pseudoperonospora cubensis, read-out: Test 2 Measured
[8] = component (b) alone 0.08 ppm, average of three repeats
[9] = component (b) alone 0.4 ppm, average of three repeats
[10] = component (b) alone 2 ppm, average of three repeats
[11] = component (b) alone 10 ppm, average of three repeats

SMILES: CSC1=N[C@@](C)(c2ccccc2)C(=O)N1Nc1ccccc1 [Fenamidone]
- pest or weed control at 0.4 ppm (Phytophthora infestans; Phytophthora infestans, in Solanum lycopersicum, read-out: Test 1 Measured, component (b) alone, 0.4 ppm): 16.7%
- pest or weed control at 2 ppm (Phytophthora infestans; Phytophthora infestans, in Solanum lycopersicum, read-out: Test 1 Measured, component (b) alone, 2 ppm): 94.2%
- pest or weed control at 10 ppm (Phytophthora infestans; Phytophthora infestans, in Solanum lycopersicum, read-out: Test 1 Measured, component (b) alone, 10 ppm): 98.5%
- pest or weed control at 0.4 ppm ([1]; Pseudoperonospora cubensis, component (b) alone, 0.4 ppm, read-out: Test 2 Measured): 0%
- pest or weed control at 2 ppm ([1]; Pseudoperonospora cubensis, component (b) alone, 2 ppm, read-out: Test 2 Measured): 0%
- pest or weed control at 10 ppm ([1]; Pseudoperonospora cubensis, component (b) alone, 10 ppm, read-out: Test 2 Measured): 0%

SMILES: O=[N+]([O-])c1cc(C(F)(F)F)c(Cl)c([N+](=O)[O-])c1Nc1ncc(C(F)(F)F)cc1Cl [Fluazinam]
- pest or weed control at 2 ppm (Phytophthora infestans; [2]): 0%
- pest or weed control at 10 ppm (Phytophthora infestans; [3]): 16.7%
- pest or weed control at 50 ppm (Phytophthora infestans; [4]): 60.8%
- pest or weed control at 0.4 ppm ([1]; Pseudoperonospora cubensis, applied alone, 0.4 ppm, read-out: Test 2 preventive value, Measured): 0%
- pest or weed control at 2 ppm [1, 5]: 90.8%
- pest or weed control at 10 ppm [1, 6]: 100%

SMILES: N#Cc1c[nH]cc1-c1cccc2c1OC(F)(F)O2 [Fludioxonil]
- pest or weed control at 20 ppm (Phytophthora infestans; [4]): 0%
- pest or weed control at 100 ppm (Phytophthora infestans; [4]): 6.7%
- pest or weed control at 500 ppm (Phytophthora infestans; [4]): 18.3%
- pest or weed control at 20 ppm [1, 7]: 87.5%
- pest or weed control at 100 ppm [1, 7]: 97%
- pest or weed control at 500 ppm [1, 7]: 98.3%

SMILES: O=C(NCc1ncc(C(F)(F)F)cc1Cl)c1c(Cl)cccc1Cl [Fluopicolide]
- Test 1 Measured (Phytophthora infestans; component (b) alone, 0.4 ppm): 0.0
- Test 1 Measured (Phytophthora infestans; component (b) alone, 2 ppm): 30.0
- Test 1 Measured (Phytophthora infestans; component (b) alone, 10 ppm): 90.8
- Test 2 Measured ([1]; component (b) alone, 0.4 ppm): 5
- Test 2 Measured ([1]; component (b) alone, 2 ppm): 98.3
- Test 2 Measured ([1]; component (b) alone, 10 ppm): 100

SMILES: CCO[PH](=O)O [Fosetyl-aluminum]
- Test 1 Measured (Phytophthora infestans; component (b) alone 80 ppm): 31.7
- Test 1 Measured (Phytophthora infestans; component (b) alone 400 ppm): 85.7
- Test 2 Measured ([1]; component (b) alone 80 ppm): 0
- Test 2 Measured ([1]; component (b) alone 400 ppm): 22.5
- Test 2 Measured ([1]; component (b) alone 2000 ppm): 49

SMILES: N=C(N)NCCCCCCCCNCCCCCCCCNC(=N)N [Iminoctadine]
- Test 1 Measured (Phytophthora infestans; component (b) alone, 20 ppm): 5
- Test 1 Measured (Phytophthora infestans; component (b) alone, 100 ppm): 92.5
- Test 1 Measured (Phytophthora infestans; component (b) alone, 500 ppm): 96.5
- Test 2 Measured ([1]; component (b) alone, 20 ppm): 79.5
- Test 2 Measured ([1]; component (b) alone, 100 ppm): 97
- Test 2 Measured ([1]; component (b) alone, 500 ppm): 99

SMILES: CC(C)NC(=O)N1CC(=O)N(c2cc(Cl)cc(Cl)c2)C1=O [Iprodione]
- pest or weed control at 20 ppm (Phytophthora infestans; [4]): 0%
- pest or weed control at 100 ppm (Phytophthora infestans; [4]): 0%
- pest or weed control at 500 ppm (Phytophthora infestans; [4]): 5%
- pest or weed control at 20 ppm [1, 7]: 0%
- pest or weed control at 100 ppm [1, 7]: 0%
- pest or weed control at 500 ppm [1, 7]: 0%

SMILES: Cc1ccc(C(C)NC(=O)[C@@H](NC(=O)OC(C)C)C(C)C)cc1 (some centres unmarked) [Iprovalicarb]
- Test 1 Measured (Phytophthora infestans; component (b) alone, 0.4 ppm): 15
- Test 1 Measured (Phytophthora infestans; component (b) alone, 2 ppm): 93.3
- Test 1 Measured (Phytophthora infestans; component (b) alone, 10 ppm): 100
- Test 2 Measured ([1]; component (b) alone, 0.4 ppm): 0
- Test 2 Measured ([1]; component (b) alone, 2 ppm): 0
- Test 2 Measured ([1]; component (b) alone, 10 ppm): 93.8

SMILES: CO/N=C(/C(=O)OC)c1ccccc1COc1ccccc1C [Kresoxim-methyl]
- pest or weed control at 2 ppm (Phytophthora infestans; [2]): 50%
- pest or weed control at 10 ppm (Phytophthora infestans; [3]): 90.7%
- pest or weed control at 50 ppm (Phytophthora infestans; [4]): 99.8%
- pest or weed control at 2 ppm [1, 5]: 0%
- pest or weed control at 10 ppm [1, 6]: 7.5%
- pest or weed control at 50 ppm ([1]; Pseudoperonospora cubensis, applied alone, 50 ppm, read-out: Test 2 preventive value, Measured): 2.5%

SMILES: C#CCOc1ccc(CCNC(=O)C(OCC#C)c2ccc(Cl)cc2)cc1OC (centres unmarked) [Mandipropamid]
- Test 1 Measured preventive value (Phytophthora infestans; [8]): 36.7
- Test 1 Measured preventive value (Phytophthora infestans; [9]): 95.5
- Test 1 Measured preventive value (Phytophthora infestans; [10]): 100.0
- Test 1 Measured (Phytophthora infestans; component (b) alone, 0.08 ppm): 40.0
- Test 1 Measured preventive value (Phytophthora infestans; component (b) alone, 0.08 ppm): 36.7
- Test 1 Measured (Phytophthora infestans; component (b) alone, 0.4 ppm): 94.0
- Test 1 Measured preventive value (Phytophthora infestans; component (b) alone, 0.4 ppm): 95.5
- Test 1 Measured (Phytophthora infestans; component (b) alone, 2 ppm): 100.0
- Test 1 Measured preventive value (Phytophthora infestans; component (b) alone, 2 ppm): 100.0
- Test 2 Measured preventive value [1, 8]: 5
- Test 2 Measured preventive value [1, 9]: 89.5
- Test 2 Measured preventive value [1, 10]: 95
- Test 2 Measured ([1]; component (b) alone, 0.08 ppm): 12
- Test 2 Measured preventive value ([1]; component (b) alone, 0.08 ppm): 5
- Test 2 Measured ([1]; component (b) alone, 0.4 ppm): 88.3
- Test 2 Measured preventive value ([1]; component (b) alone, 0.4 ppm): 89.5
- Test 2 Measured ([1]; component (b) alone, 2 ppm): 95
- Test 2 Measured preventive value ([1]; component (b) alone, 2 ppm): 95

SMILES: COCC(=O)N(c1c(C)cccc1C)[C@H](C)C(=O)OC [Metalaxyl-M]
- Test 1 Measured preventive value (Phytophthora infestans; [9]): 38.3
- Test 1 Measured preventive value (Phytophthora infestans; [10]): 89.2
- Test 1 Measured preventive value (Phytophthora infestans; [11]): 100.0
- Test 1 Measured (Phytophthora infestans; component (b) alone, 0.4 ppm): 54.4
- Test 1 Measured preventive value (Phytophthora infestans; component (b) alone, 0.4 ppm): 38.3
- Test 1 Measured (Phytophthora infestans; component (b) alone, 2 ppm): 86.0
- Test 1 Measured preventive value (Phytophthora infestans; component (b) alone, 2 ppm): 89.3
- Test 1 Measured (Phytophthora infestans; component (b) alone, 10 ppm): 99.0
- Test 1 Measured preventive value (Phytophthora infestans; component (b) alone, 10 ppm): 98.5
- Test 2 Measured preventive value [1, 9]: 0
- Test 2 Measured preventive value [1, 10]: 0
- Test 2 Measured preventive value [1, 11]: 0
- Test 2 Measured ([1]; component (b) alone, 0.4 ppm): 0
- Test 2 Measured preventive value ([1]; component (b) alone, 0.4 ppm): 0
- Test 2 Measured ([1]; component (b) alone, 2 ppm): 0
- Test 2 Measured preventive value ([1]; component (b) alone, 2 ppm): 0
- Test 2 Measured ([1]; component (b) alone, 10 ppm): 0
- Test 2 Measured preventive value ([1]; component (b) alone, 10 ppm): 0
